Measured values as given in ChEMBL document CHEMBL4507281, “Data for DCP probe BI-4394” (2021).

Legend:
[1] = biological target: AP2-associated protein kinase 1 (Homo sapiens) (UniProt Q2M2I8); conditions: Compound concentration 100.0 nM
[2] = biological target: Tyrosine-protein kinase ABL1 (Homo sapiens) (UniProt P00519); conditions: Compound concentration 100.0 nM
[3] = biological target: Activin receptor type-1 (Homo sapiens) (UniProt Q04771); conditions: Compound concentration 100.0 nM
[4] = biological target: Atypical kinase COQ8B, mitochondrial (Homo sapiens) (UniProt Q96D53); conditions: Compound concentration 100.0 nM
[5] = biological target: Tyrosine-protein kinase Blk (Homo sapiens) (UniProt P51451); conditions: Compound concentration 100.0 nM
[6] = biological target: Serine/threonine-protein kinase BRSK1 (Homo sapiens) (UniProt Q8TDC3); conditions: Compound concentration 100.0 nM
[7] = biological target: Calcium/calmodulin-dependent protein kinase type 1D (Homo sapiens) (UniProt Q8IU85); conditions: Compound concentration 100.0 nM
[8] = biological target: Cyclin-dependent kinase 7 (Homo sapiens) (UniProt P50613); conditions: Compound concentration 100.0 nM
[9] = biological target: Casein kinase II subunit alpha (Homo sapiens) (UniProt P68400); conditions: Compound concentration 100.0 nM
[10] = biological target: Megakaryocyte-associated tyrosine-protein kinase (Homo sapiens) (UniProt P42679); conditions: Compound concentration 100.0 nM
[11] = biological target: Dual specificity tyrosine-phosphorylation-regulated kinase 1B (Homo sapiens) (UniProt Q9Y463); conditions: Compound concentration 100.0 nM
[12] = biological target: Mitogen-activated protein kinase 7 (Homo sapiens) (UniProt Q13164); conditions: Compound concentration 100.0 nM
Sequence of Mitogen-activated protein kinase 7 (Homo sapiens) (Q13164 2-816 limits assumed): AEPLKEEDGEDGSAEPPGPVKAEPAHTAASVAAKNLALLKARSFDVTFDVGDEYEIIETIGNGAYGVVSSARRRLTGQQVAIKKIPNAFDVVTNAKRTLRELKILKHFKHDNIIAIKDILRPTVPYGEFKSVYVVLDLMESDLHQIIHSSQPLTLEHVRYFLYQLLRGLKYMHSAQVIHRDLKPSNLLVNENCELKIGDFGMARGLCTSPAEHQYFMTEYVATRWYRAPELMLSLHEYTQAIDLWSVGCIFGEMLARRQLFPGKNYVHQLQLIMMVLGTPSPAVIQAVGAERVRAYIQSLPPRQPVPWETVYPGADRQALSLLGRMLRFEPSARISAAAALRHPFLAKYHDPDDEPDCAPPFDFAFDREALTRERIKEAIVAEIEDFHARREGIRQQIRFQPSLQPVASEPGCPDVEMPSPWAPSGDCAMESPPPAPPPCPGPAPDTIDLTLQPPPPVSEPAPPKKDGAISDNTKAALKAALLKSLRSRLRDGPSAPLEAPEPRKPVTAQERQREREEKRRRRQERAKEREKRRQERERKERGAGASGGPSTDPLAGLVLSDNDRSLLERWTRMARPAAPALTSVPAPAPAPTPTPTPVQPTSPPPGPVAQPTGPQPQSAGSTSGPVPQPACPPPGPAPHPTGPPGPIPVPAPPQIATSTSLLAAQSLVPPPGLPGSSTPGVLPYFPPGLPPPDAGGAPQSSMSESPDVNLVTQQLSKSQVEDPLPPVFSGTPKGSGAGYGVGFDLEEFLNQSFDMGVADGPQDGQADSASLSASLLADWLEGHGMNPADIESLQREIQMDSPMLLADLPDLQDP

[13] = biological target: Tyrosine-protein kinase Fes/Fps (Homo sapiens) (UniProt P07332); conditions: Compound concentration 100.0 nM
[14] = tested on: Receptor-type tyrosine-protein kinase FLT3 (Homo sapiens), P36888 [D835Y]; conditions: Compound concentration 100.0 nM
[15] = biological target: Tyrosine-protein kinase Fyn (Homo sapiens) (UniProt P06241); conditions: Compound concentration 100.0 nM
[16] = biological target: Inhibitor of nuclear factor kappa-B kinase subunit epsilon (Homo sapiens) (UniProt Q14164); conditions: Compound concentration 100.0 nM
[17] = tested on: Mast/stem cell growth factor receptor Kit (Homo sapiens), P10721 [V559D,T670I]; conditions: Compound concentration 100.0 nM
[18] = tested on: Mast/stem cell growth factor receptor Kit (Homo sapiens), P10721 [V559D,V654A]; conditions: Compound concentration 100.0 nM
[19] = biological target: Mast/stem cell growth factor receptor Kit (Homo sapiens) (UniProt P10721); conditions: Compound concentration 100.0 nM
[20] = biological target: Mitogen-activated protein kinase kinase kinase 2 (Homo sapiens) (UniProt Q9Y2U5); conditions: Compound concentration 100.0 nM
Sequence of Mitogen-activated protein kinase kinase kinase 2 (Homo sapiens) (Q9Y2U5 whole entry): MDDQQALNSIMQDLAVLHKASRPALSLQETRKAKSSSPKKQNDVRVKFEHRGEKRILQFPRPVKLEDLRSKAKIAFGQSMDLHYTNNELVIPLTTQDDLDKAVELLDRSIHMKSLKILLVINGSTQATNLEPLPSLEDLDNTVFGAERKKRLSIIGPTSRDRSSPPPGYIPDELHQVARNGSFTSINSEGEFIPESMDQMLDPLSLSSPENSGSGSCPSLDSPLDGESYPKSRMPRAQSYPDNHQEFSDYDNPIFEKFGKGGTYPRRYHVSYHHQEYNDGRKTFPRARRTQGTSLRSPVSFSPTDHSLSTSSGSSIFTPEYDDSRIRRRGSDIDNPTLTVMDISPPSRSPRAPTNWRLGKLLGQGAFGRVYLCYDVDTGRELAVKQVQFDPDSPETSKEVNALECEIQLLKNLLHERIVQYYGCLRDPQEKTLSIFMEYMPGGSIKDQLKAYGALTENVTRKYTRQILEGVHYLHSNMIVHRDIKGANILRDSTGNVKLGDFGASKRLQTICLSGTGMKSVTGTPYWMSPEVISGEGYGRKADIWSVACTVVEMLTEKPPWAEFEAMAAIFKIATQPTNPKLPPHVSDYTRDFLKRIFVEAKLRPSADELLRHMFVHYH

[21] = biological target: Myosin-IIIb (Homo sapiens) (UniProt Q8WXR4); conditions: Compound concentration 100.0 nM
[22] = biological target: Serine/threonine-protein kinase Nek11 (Homo sapiens) (UniProt Q8NG66); conditions: Compound concentration 100.0 nM
Sequence of Serine/threonine-protein kinase Nek11 (Homo sapiens) (Q8NG66 whole entry): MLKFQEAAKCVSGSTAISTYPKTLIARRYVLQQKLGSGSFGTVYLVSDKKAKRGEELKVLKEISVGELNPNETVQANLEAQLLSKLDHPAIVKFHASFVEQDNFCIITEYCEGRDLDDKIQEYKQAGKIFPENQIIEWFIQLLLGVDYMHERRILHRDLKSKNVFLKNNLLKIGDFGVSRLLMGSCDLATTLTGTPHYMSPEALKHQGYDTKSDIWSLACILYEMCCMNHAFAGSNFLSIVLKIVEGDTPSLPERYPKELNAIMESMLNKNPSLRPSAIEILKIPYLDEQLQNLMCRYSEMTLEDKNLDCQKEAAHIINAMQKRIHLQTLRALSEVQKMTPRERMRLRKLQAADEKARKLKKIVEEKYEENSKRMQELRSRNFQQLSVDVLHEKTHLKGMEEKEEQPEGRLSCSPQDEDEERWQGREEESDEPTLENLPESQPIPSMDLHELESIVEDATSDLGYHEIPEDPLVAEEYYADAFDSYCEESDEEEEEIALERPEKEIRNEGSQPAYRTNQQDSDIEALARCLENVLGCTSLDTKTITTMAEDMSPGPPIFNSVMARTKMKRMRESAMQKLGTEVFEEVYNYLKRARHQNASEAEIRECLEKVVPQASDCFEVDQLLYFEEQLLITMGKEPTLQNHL

[23] = biological target: Serine/threonine-protein kinase Nek4 (Homo sapiens) (UniProt P51957); conditions: Compound concentration 100.0 nM
[24] = biological target: Serine/threonine-protein kinase Nek9 (Homo sapiens) (UniProt Q8TD19); conditions: Compound concentration 100.0 nM
[25] = biological target: Mitogen-activated protein kinase kinase kinase 14 (Homo sapiens) (UniProt Q99558); conditions: Compound concentration 100.0 nM
[26] = biological target: Serine/threonine-protein kinase PAK 4 (Homo sapiens) (UniProt O96013); conditions: Compound concentration 100.0 nM
[27] = biological target: Cyclin-dependent kinase 15 (Homo sapiens) (UniProt Q96Q40); conditions: Compound concentration 100.0 nM
[28] = biological target: Cyclin-dependent kinase 14 (Homo sapiens) (UniProt O94921); conditions: Compound concentration 100.0 nM
Sequence of Cyclin-dependent kinase 14 (Homo sapiens) (O94921 whole entry): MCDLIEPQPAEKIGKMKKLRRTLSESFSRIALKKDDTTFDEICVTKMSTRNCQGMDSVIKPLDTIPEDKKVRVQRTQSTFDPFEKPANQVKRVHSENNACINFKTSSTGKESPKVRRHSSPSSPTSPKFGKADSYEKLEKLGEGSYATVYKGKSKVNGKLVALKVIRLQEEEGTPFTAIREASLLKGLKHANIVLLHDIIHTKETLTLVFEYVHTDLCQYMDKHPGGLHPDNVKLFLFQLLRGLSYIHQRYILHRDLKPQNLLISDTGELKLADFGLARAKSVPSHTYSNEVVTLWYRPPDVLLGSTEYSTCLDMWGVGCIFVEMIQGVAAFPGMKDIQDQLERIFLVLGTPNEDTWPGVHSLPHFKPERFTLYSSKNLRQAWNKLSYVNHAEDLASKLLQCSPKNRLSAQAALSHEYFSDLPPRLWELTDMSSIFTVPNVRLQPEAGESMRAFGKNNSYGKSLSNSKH

[29] = biological target: Ribosomal protein S6 kinase alpha-4 (Homo sapiens) (UniProt O75676); conditions: Compound concentration 100.0 nM
[30] = biological target: Ribosomal protein S6 kinase alpha-1 (Homo sapiens) (UniProt Q15418); conditions: Compound concentration 100.0 nM
[31] = biological target: Serine/threonine-protein kinase SBK1 (Homo sapiens) (UniProt Q52WX2); conditions: Compound concentration 100.0 nM
[32] = biological target: Serine/threonine-protein kinase Sgk3 (Homo sapiens) (UniProt Q96BR1); conditions: Compound concentration 100.0 nM
[33] = biological target: Serine/threonine-protein kinase SIK1 (Homo sapiens) (UniProt P57059); conditions: Compound concentration 100.0 nM
Sequence of Serine/threonine-protein kinase SIK1 (Homo sapiens) (P57059 whole entry): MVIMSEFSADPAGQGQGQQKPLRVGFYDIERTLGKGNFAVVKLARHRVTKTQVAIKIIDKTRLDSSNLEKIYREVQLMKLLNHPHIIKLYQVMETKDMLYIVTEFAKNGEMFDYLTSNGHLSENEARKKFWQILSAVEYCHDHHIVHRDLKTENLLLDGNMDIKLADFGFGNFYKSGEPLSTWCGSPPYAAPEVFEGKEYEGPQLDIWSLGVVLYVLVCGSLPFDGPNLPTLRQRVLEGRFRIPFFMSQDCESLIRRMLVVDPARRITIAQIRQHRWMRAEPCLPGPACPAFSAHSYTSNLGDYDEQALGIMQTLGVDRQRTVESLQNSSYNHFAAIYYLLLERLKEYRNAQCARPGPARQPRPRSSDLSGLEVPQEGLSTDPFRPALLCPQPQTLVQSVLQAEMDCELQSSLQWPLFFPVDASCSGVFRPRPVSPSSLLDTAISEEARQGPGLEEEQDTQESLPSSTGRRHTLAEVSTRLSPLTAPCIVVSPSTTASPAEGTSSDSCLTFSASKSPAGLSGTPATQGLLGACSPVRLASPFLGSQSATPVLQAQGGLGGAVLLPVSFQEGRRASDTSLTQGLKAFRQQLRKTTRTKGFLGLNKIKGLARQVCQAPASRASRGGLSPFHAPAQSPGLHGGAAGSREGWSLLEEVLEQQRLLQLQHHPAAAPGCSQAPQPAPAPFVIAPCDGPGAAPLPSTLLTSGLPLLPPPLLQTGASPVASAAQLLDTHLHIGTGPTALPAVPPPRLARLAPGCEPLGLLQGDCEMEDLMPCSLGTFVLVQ

[34] = biological target: Serine/threonine-protein kinase SIK2 (Homo sapiens) (UniProt Q9H0K1); conditions: Compound concentration 100.0 nM
[35] = biological target: SRSF protein kinase 2 (Homo sapiens) (UniProt P78362); conditions: Compound concentration 100.0 nM
[36] = biological target: SRSF protein kinase 3 (Homo sapiens) (UniProt Q9UPE1); conditions: Compound concentration 100.0 nM
Sequence of SRSF protein kinase 3 (Homo sapiens) (Q9UPE1 whole entry): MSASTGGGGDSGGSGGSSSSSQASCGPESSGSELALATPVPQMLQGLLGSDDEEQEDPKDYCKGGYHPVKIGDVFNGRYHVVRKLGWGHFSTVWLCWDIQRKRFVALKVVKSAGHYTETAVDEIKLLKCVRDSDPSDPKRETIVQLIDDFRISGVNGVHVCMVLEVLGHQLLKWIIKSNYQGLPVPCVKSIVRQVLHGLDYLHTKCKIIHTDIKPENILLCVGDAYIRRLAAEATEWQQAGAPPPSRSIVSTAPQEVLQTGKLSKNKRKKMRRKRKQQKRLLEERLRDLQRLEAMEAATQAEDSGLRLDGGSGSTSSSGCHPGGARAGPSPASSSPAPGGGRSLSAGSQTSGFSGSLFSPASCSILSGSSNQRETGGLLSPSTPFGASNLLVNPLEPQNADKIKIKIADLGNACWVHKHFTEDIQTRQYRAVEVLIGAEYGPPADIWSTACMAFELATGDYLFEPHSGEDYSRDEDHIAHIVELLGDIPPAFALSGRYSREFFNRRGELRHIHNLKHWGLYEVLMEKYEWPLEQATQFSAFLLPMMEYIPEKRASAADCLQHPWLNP

[37] = biological target: Angiopoietin-1 receptor (Homo sapiens) (UniProt Q02763); conditions: Compound concentration 100.0 nM
[38] = biological target: TRAF2 and NCK-interacting protein kinase (Homo sapiens) (UniProt Q9UKE5); conditions: Compound concentration 100.0 nM
[39] = biological target: Non-receptor tyrosine-protein kinase TNK1 (Homo sapiens) (UniProt Q13470); conditions: Compound concentration 100.0 nM
[40] = biological target: Non-receptor tyrosine-protein kinase TYK2 (Homo sapiens) (UniProt P29597); conditions: Compound concentration 100.0 nM
[41] = biological target: Serine/threonine-protein kinase WNK2 (Homo sapiens) (UniProt Q9Y3S1); conditions: Compound concentration 100.0 nM
[42] = biological target: 5-hydroxytryptamine receptor 6 (Homo sapiens) (UniProt P50406); conditions: Compound concentration 10.0 uM
D(1B) dopamine receptor = D(1B) dopamine receptor (Homo sapiens, UniProt P21918); conditions: Compound concentration 10.0 uM

Sequence of AP2-associated protein kinase 1 (Homo sapiens) (Q2M2I8 whole entry, looked up): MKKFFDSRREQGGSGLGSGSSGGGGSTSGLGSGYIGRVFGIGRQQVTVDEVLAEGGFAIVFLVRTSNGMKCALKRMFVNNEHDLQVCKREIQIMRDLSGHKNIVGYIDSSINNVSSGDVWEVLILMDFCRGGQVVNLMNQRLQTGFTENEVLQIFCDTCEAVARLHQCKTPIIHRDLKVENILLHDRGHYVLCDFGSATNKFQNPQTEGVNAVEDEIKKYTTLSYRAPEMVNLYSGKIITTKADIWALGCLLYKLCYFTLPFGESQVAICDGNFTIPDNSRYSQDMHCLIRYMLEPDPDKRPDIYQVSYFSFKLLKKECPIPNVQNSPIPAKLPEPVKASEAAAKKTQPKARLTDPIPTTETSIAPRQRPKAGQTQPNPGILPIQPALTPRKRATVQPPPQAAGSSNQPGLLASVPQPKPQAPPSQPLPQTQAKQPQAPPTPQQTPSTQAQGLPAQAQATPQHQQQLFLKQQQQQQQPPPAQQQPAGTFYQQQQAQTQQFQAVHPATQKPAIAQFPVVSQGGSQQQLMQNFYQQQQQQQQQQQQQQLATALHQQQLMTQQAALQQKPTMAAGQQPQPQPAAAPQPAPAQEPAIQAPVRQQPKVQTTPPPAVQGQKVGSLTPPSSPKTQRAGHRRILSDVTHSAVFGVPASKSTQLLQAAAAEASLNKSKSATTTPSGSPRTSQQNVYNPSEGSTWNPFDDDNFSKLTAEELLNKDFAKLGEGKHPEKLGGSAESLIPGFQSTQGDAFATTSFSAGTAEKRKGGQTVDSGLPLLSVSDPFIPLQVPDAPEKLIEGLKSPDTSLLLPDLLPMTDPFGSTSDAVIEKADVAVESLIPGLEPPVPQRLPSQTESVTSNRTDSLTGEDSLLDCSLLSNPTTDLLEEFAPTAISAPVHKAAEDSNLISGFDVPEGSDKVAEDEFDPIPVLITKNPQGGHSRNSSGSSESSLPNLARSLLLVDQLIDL

CCOC(=O)c1cc2cc(-c3cc(C(=O)NCc4ccc(C(=O)O)cc4)nn3C)ccc2[nH]1 [BI 4394]
residual activity [1]: 100%
residual activity [2]: 94%
residual activity [3]: 84%
residual activity [4]: 100%
residual activity [5]: 99%
residual activity [6]: 100%
residual activity [7]: 100%
residual activity [8]: 76%
residual activity [9]: 81%
residual activity [10]: 96%
residual activity [11]: 100%
residual activity [12]: 100%
residual activity [13]: 94%
residual activity [14]: 92%
residual activity [15]: 100%
residual activity [16]: 66%
residual activity [17]: 96%
residual activity [18]: 100%
residual activity [19]: 83%
residual activity [20]: 100%
residual activity [21]: 84%
residual activity [22]: 77%
residual activity [23]: 81%
residual activity [24]: 98%
residual activity [25]: 58%
residual activity [26]: 100%
residual activity [27]: 93%
residual activity [28]: 100%
residual activity [29]: 86%
residual activity [30]: 84%
residual activity [31]: 90%
residual activity [32]: 82%
residual activity [33]: 97%
residual activity [34]: 100%
residual activity [35]: 100%
residual activity [36]: 100%
residual activity [37]: 83%
residual activity [38]: 100%
residual activity [39]: 88%
residual activity [40]: 91%
residual activity [41]: 85%
inhibition [42]: 4.01%
inhibition (D(1B) dopamine receptor): 59.6%

Cn1nc(C(=O)NCc2ccc(C(=O)O)cc2)cc1-c1ccc2[nH]ccc2c1 [BI 4395]
residual activity [1]: 90%
residual activity [2]: 62%
residual activity [3]: 99%
residual activity [4]: 100%
residual activity [5]: 100%
residual activity [6]: 86%
residual activity [7]: 95%
residual activity [8]: 100%
residual activity [9]: 68%
residual activity [10]: 86%
residual activity [11]: 100%
residual activity [12]: 87%
residual activity [13]: 95%
residual activity [14]: 81%
residual activity [15]: 98%
residual activity [16]: 100%
residual activity [17]: 77%
residual activity [18]: 95%
residual activity [19]: 90%
residual activity [20]: 75%
residual activity [21]: 100%
residual activity [22]: 83%
residual activity [23]: 84%
residual activity [24]: 99%
residual activity [25]: 85%
residual activity [26]: 86%
residual activity [27]: 95%
residual activity [28]: 100%
residual activity [29]: 81%
residual activity [30]: 95%
residual activity [31]: 77%
residual activity [32]: 96%
residual activity [33]: 100%
residual activity [34]: 90%
residual activity [35]: 85%
residual activity [36]: 100%
residual activity [37]: 82%
residual activity [38]: 97%
residual activity [39]: 100%
residual activity [40]: 94%
residual activity [41]: 70%
inhibition [42]: 8.85%
inhibition (D(1B) dopamine receptor): 73.9%
